Reference: the supplement of paper PMC11579375

Legend:
Assay in all cases: area under the viability dose-response curve (AUC) (AUC (arbitrary units, max 500 = no viability loss)); higher = less sensitive (higher viability)
Conditions in all cases: exposure time: 120 h; concentration range: 0.1 nM - 10 µM, 6 doses
13F2 = tested on: 13F2 (fetal-II hepatoblastoma organoid with high liver markers)
Method: (§1)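 Patient-derived hepatoblastoma tumor organoids (about 50 organoids per well, 384-well plates, medium with 5% BME) were treated with the PMC pediatric cancer drug library. Each drug was tested in duplicate at 6 concentrations (0.1 nM to 10 µM, 10-fold steps).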

96F1 = tested on: 96F1 (fetal-I hepatoblastoma organoid with intermediate liver markers)
Method: as §1

22E = tested on: 22E (embryonal-type hepatoblastoma organoid)
Method: as §1

135F2 = tested on: 135F2 (fetal-II hepatoblastoma organoid with high liver markers)
Method: as §1

27F1 = tested on: 27F1 (fetal-I hepatoblastoma organoid with intermediate liver markers)
Method: as §1

13E = tested on: 13E (embryonal-type hepatoblastoma organoid)
Method: as §1

17F1 = tested on: 17F1 (fetal-I hepatoblastoma organoid with intermediate liver markers)
Method: as §1

17E = tested on: 17E (embryonal-type hepatoblastoma organoid)
Method: as §1

8F1 = tested on: 8F1 (fetal-I hepatoblastoma organoid with intermediate liver markers)
Method: as §1

10F2 = tested on: 10F2 (fetal-II hepatoblastoma organoid with high liver markers)
Method: as §1

3E = tested on: 3E (embryonal-type hepatoblastoma organoid)
Method: as §1

SMILES | area under the viability dose-response curve (13F2) | area under the viability dose-response curve (96F1) | area under the viability dose-response curve (22E) | area under the viability dose-response curve (135F2) | area under the viability dose-response curve (27F1) | area under the viability dose-response curve (13E) | area under the viability dose-response curve (17F1) | area under the viability dose-response curve (17E) | area under the viability dose-response curve (8F1) | area under the viability dose-response curve (10F2) | area under the viability dose-response curve (3E)
CC[C@@]1(O)C(=O)OCc2c1cc1n(c2=O)Cc2cc3ccccc3nc2-1 [Camptothecin] | 174 | 208 | 361 | 227 | 255 | 304 | 277 | 263 | 295 | 219 | 201
CS(=O)(=O)c1ccc(C(=O)Nc2ccc(Cl)c(-c3ccccn3)c2)c(Cl)c1 [Vismodegib] | 490 | 494 | 452 | 473 | 497 | 496 | 489 | > 500 | > 500 | 443 | > 500
COc1cc(N2CCC(N3CCN(C)CC3)CC2)ccc1Nc1ncc(Cl)c(Nc2ccccc2P(C)(C)=O)n1 [Brigatinib] | 388 | 427 | 381 | 392 | 420 | 402 | 426 | 398 | 454 | 399 | 349
Cc1sc2c(c1C)C(c1ccc(Cl)cc1)=N[C@@H](CC(=O)Nc1ccc(O)cc1)c1nnc(C)n1-2 [Birabresib] | 318 | 478 | 399 | 354 | 482 | 410 | 461 | 395 | 473 | 390 | 358
CN[C@@H](C)C(=O)N[C@H](C(=O)N1CCC[C@H]1C(=O)N[C@H]1c2ccccc2C[C@H]1OCC#CC#CCO[C@@H]1Cc2ccccc2[C@@H]1NC(=O)[C@@H]1CCCN1C(=O)[C@@H](NC(=O)[C@H](C)NC)C1CCCCC1)C1CCCCC1 [AZD5582] | 470 | 458 | 82.8 | 483 | 394 | 424 | 446 | 473 | 414 | 321 | 148
CN1CCN(CCOc2cc(OC3CCOCC3)c3c(Nc4c(Cl)ccc5c4OCO5)ncnc3c2)CC1 [Saracatinib] | 415 | 466 | 477 | 478 | 381 | 464 | 493 | 455 | 475 | 422 | 492
CCC(CC)(NC(=O)C(C)C)C(=O)N[C@@H](CCCN=C(N)N)C(=O)NC1(C(=O)NC(c2ccc(F)cc2)c2ccc(F)cc2)CCCC1 [MM102] | 482 | 485 | 464 | 497 | 493 | > 500 | 486 | > 500 | > 500 | 445 | > 500
C[C@]12C=CC(=O)C=C1CC[C@@H]1[C@@H]2[C@@H](O)C[C@@]2(C)[C@H]1CC[C@]2(O)C(=O)CO [Prednisolone] | > 500 | 479 | 487 | 475 | 489 | 494 | 493 | 467 | 472 | 475 | 472
Cc1ccc(C(=O)Nc2ccc(Oc3cc4cnn(C)c4cc3-c3cn[nH]c3)c(F)c2)c(=O)n1-c1ccc(F)cc1 [Merestinib] | 466 | > 500 | 464 | 487 | > 500 | 463 | > 500 | 486 | 484 | 432 | 452
C[C@@H]1COC(Nc2ccc3ncnc(Nc4ccc(OCc5nccs5)c(Cl)c4)c3c2)=N1 [Varlitinib] | 372 | 430 | 481 | 465 | 433 | 476 | 447 | 480 | 476 | 382 | 485
CC(C)(O)CNc1nc(Nc2ccnc(C(F)(F)F)c2)nc(-c2cccc(C(F)(F)F)n2)n1 [Enasidenib] | > 500 | > 500 | > 500 | > 500 | > 500 | > 500 | > 500 | > 500 | > 500 | > 500 | > 500
CCn1c(-c2nonc2N)nc2cnc(Oc3cccc(NC(=O)c4ccc(OCCN5CCOCC5)cc4)c3)cc21 | 392 | 469 | 468 | 441 | 481 | 478 | 451 | 450 | 467 | 348 | 493
O=C(NC1CCNCC1)c1n[nH]cc1NC(=O)c1c(Cl)cccc1Cl [AT7519] | 361 | 387 | 371 | 396 | 456 | 348 | 381 | 406 | 381 | 378 | 332
COc1cc2c(Oc3ccc4[nH]c(C)cc4c3F)ncnc2cc1OCCCN1CCCC1 [Cediranib] | 402 | 454 | 414 | 438 | 431 | 428 | 459 | 425 | > 500 | 430 | 390
COc1cc(C(=O)O)ccc1NC(=O)[C@@H]1N[C@@H](CC(C)(C)C)[C@](C#N)(c2ccc(Cl)cc2F)[C@H]1c1cccc(Cl)c1F [Idasanutlin] | 282 | 471 | 450 | 397 | 402 | 413 | 457 | 378 | 371 | 291 | 349
Cc1ccc(NC(=O)c2ccc(CN3CCN(C)CC3)cc2)cc1Nc1nc(-c2cccnc2)cs1 [Masitinib] | 489 | 484 | 474 | 473 | > 500 | 489 | > 500 | 462 | > 500 | 497 | 483
Cc1ncc(Cl)cc1NCc1ccc(C(=O)N[C@@H](CC2CCCC2)C(=O)NC2CC2)s1 | 468 | > 500 | > 500 | 476 | 488 | > 500 | > 500 | > 500 | > 500 | 491 | 456

SMILES | area under the viability dose-response curve (13F2) | area under the viability dose-response curve (96F1) | area under the viability dose-response curve (22E) | area under the viability dose-response curve (135F2) | area under the viability dose-response curve (27F1) | area under the viability dose-response curve (13E) | area under the viability dose-response curve (17F1) | area under the viability dose-response curve (17E) | area under the viability dose-response curve (8F1) | area under the viability dose-response curve (10F2) | area under the viability dose-response curve (3E)
CCc1cc2c(cc1N1CCC(N3CCOCC3)CC1)C(C)(C)c1[nH]c3cc(C#N)ccc3c1C2=O [Alectinib] | 473 | > 500 | 479 | 499 | > 500 | 498 | 499 | > 500 | 496 | > 500 | 452
CCn1cc(-c2ccnc3[nH]c(-c4cccc(CN(C)C)c4)cc23)c(-c2ccc(NC(=O)N(C)C)cc2)n1 | 298 | 413 | 408 | 370 | 387 | 382 | 477 | 297 | 458 | 307 | 322
C=CCn1c(=O)c2cnc(Nc3ccc(N4CCN(C)CC4)cc3)nc2n1-c1cccc(C(C)(C)O)n1 [Adavosertib] | 354 | 361 | 423 | 353 | 386 | 404 | 383 | 336 | 438 | 328 | 335
COc1cc(OC)cc(N(CCNC(C)C)c2ccc3ncc(-c4cnn(C)c4)nc3c2)c1 [Erdafitinib] | 323 | 498 | 345 | 496 | 467 | 341 | 499 | 231 | 489 | 448 | 227
FC(F)(F)c1ccc(/C=C/c2nc(COc3ccc(CCCCn4ccnn4)cc3)co2)cc1 [Mubritinib] | 264 | 269 | 449 | 334 | 335 | 339 | 245 | 419 | 263 | 438 | 429
CC(C)(C)c1cc(NC(=O)Nc2ccc(-c3cn4c(n3)sc3cc(OCCN5CCOCC5)ccc34)cc2)no1 [Quizartinib] | 485 | 489 | 484 | 489 | > 500 | > 500 | 471 | 432 | 494 | 474 | > 500
N#CCNC(=O)c1ccc(-c2ccnc(Nc3ccc(N4CCOCC4)cc3)n2)cc1 [Momelotinib] | 443 | 465 | 489 | 462 | 496 | 471 | 489 | 444 | 479 | 442 | 462
C[C@@H]1COCCN1c1cc(=O)n2c(n1)N(Cc1cncc(Cl)c1)[C@H](C(F)(F)F)CC2 [SAR405] | 467 | > 500 | 474 | 490 | 454 | 497 | > 500 | 496 | 489 | > 500 | 479
CC1=C(/C=C/C(C)=C/C=C/C(C)=C\C(=O)O)C(C)(C)CCC1 [Isotretinoin] | > 500 | > 500 | 472 | 496 | > 500 | 468 | > 500 | 495 | > 500 | > 500 | 440
NC1(c2ccc(-c3nc4ccn5c(=O)[nH]nc5c4cc3-c3ccccc3)cc2)CCC1 [MK-2206] | 395 | 427 | 440 | 462 | 459 | 415 | 473 | 377 | 431 | 445 | 371
CC[C@H](NC(=O)[C@H](C)NC)C(=O)N1C[C@@H](O)C[C@H]1Cc1c(-c2[nH]c3cc(F)ccc3c2C[C@@H]2C[C@H](O)CN2C(=O)[C@H](CC)NC(=O)[C@H](C)NC)[nH]c2cc(F)ccc12 [Birinapant] | 483 | 480 | 204 | 483 | > 500 | 473 | 467 | 434 | 468 | 425 | 237
C[C@@H]1C[C@H]2[C@@H]3CCC4=CC(=O)C=C[C@]4(C)[C@@]3(F)[C@@H](O)C[C@]2(C)[C@@]1(O)C(=O)CO [Dexamethasone] | 494 | > 500 | 497 | 472 | > 500 | 473 | 477 | > 500 | 484 | > 500 | > 500
Cc1ccc2c(Nc3cccc(Cl)c3F)nccc2c1NC(=O)c1csc2c(N)ncnc12 [Belvarafenib] | 407 | > 500 | 474 | 389 | 484 | > 500 | > 500 | 499 | > 500 | 334 | 497
CC(C)N(C[C@H]1O[C@@H](n2cnc3c(N)ncnc32)[C@H](O)[C@@H]1O)[C@H]1C[C@@H](CCc2nc3cc(C(C)(C)C)ccc3[nH]2)C1 [Pinometostat] | 486 | 469 | > 500 | 489 | 490 | 493 | 472 | 453 | 497 | 432 | > 500
COCCNCc1ccc(-c2cc3nccc(Oc4ccc(NC(=O)C5(C(=O)Nc6ccc(F)cc6)CC5)cc4F)c3s2)nc1 [Sitravatinib] | 425 | 433 | 431 | 432 | 442 | 436 | 457 | 375 | 441 | 374 | 417
CN(C)C/C=C/C(=O)Nc1ccc(C(=O)Nc2cccc(Nc3ncc(Cl)c(-c4c[nH]c5ccccc45)n3)c2)cc1 [THZ1] | 276 | 343 | 241 | 314 | 435 | 291 | 371 | 281 | 410 | 256 | 223
